Experimental data published in patent US20200216818A1 (priority 2013, published 2020).

Columns and labels:
Test in all cases: MTS viability assay, ZD2767P prodrug, untransduced vs VV-CPG2-transduced cells
[1] = system: FaDu cells; type: cell-based, human; conditions: FaDu cells transduced with VV-CPG2 at MOI 0.1 vs untransduced
[2] = system: SW620 cells; type: cell-based; conditions: SW620 cells transduced with VV-CPG2 at MOI 0.1 vs untransduced
[3] = system: WM226.4 cells; type: cell-based; conditions: WM226.4 cells transduced with VV-CPG2 at MOI 0.1 vs untransduced

## O=C(O)CC[C@H](NC(=O)Oc1ccc(N(CCI)CCI)cc1)C(=O)O [ZD2767P, N-(4-[bis(2-iodoethyl)amino]phenoxycarbonyl)-L-glutamic acid]
[1]
  reduction of the EC50 of ZD2767P: 103 fold
[2]
  reduction of the EC50 of ZD2767P: 119 fold
[3]
  reduction of the EC50 of ZD2767P: 114 fold
